Reference: ChEMBL document CHEMBL4024786, “In Silico Fragment-Based Design Identifies Subfamily B1 Metallo-β-lactamase Inhibitors” (J Med Chem, 2018)
Activity calls are given as the source filed them. The rule behind the calls is not given here.

Assays:
[1] = Inhibition of recombinant bacterial IMP-1 expressed in Escherichia coli BL21 (DE3) cells using FC4 as substrate preincubated for 10 mins prior to substrate addition in presence of Triton X-100 by fluorescence-based assay; design: species or system Bacteria
[2] = Inhibition of recombinant bacterial NDM-1 expressed in Escherichia coli BL21 (DE3) cells using imipenem as substrate in presence of Triton X-100 by spectrophotometric analysis; design: species or system Bacteria
[3] = tested on: Escherichia coli str. K-12 substr. MG1655; experiment: Inhibition of NDM-1 in Escherichia coli MG1655 assessed as potentiation of meropenem induced antibacterial activity by measuring meropenem MIC at 100 ug/ml after 18 to 24 hrs by broth microdilution method (reference value: >128 ug/ml)
[4] = biological target: Metallo-beta-lactamase type 2 (Klebsiella pneumoniae) (UniProt C7C422); experiment: Inhibition of NDM-1 in Klebsiella pneumoniae ATCC 5055 assessed as potentiation of meropenem induced antibacterial activity by measuring meropenem MIC at 100 ug/ml after 18 to 24 hrs by broth microdilution method (reference value: >128 ug/ml)
[5] = Inhibition of recombinant bacterial VIM-2 expressed in Escherichia coli BL21 (DE3) cells using FC4 as substrate preincubated for 10 mins prior to substrate addition in presence of Triton X-100 by fluorescence-based assay; design: species or system Bacteria
Liver = experiment: Drug metabolism in human liver microsomes; assay type: ADME, microsome
[6] = Aqueous solubility of the compound in phosphate buffer at pH 7.0; assay type: physicochemical
5' exonuclease Apollo = biological target: T1, 5' exonuclease Apollo (Homo sapiens, UniProt Q9H816); experiment: Inhibition of human DCLRE1B
T1 sequence (Q9H816 whole entry): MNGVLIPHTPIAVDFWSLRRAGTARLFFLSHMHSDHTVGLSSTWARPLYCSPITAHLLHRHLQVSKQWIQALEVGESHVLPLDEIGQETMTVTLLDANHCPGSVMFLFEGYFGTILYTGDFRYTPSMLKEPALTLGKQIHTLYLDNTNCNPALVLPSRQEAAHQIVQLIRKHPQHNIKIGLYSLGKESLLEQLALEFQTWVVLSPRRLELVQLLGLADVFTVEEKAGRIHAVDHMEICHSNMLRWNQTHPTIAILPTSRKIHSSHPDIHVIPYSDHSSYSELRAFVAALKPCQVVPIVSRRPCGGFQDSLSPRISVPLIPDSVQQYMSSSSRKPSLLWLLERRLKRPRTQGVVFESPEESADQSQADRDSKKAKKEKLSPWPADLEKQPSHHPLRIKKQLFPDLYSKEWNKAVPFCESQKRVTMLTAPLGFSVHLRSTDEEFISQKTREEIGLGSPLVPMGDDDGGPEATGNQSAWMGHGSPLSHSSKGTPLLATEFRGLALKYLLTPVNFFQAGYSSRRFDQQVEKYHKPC

[7] = Inhibition of recombinant bacterial SPM-1 expressed in Escherichia coli BL21 (DE3) cells using FC5 as substrate preincubated for 10 mins prior to substrate addition by fluorescence-based assay; design: species or system Bacteria
[8] = Inhibition of recombinant bacterial Bc2 expressed in Escherichia coli BL21 (DE3) cells using FC5 as substrate preincubated for 10 mins prior to substrate addition by fluorescence-based assay; design: species or system Bacteria
Bacteria = experiment: Binding affinity to recombinant bacterial VIM-2 expressed in Escherichia coli BL21 (DE3) cells at 50 uM in presence of 4-(2,3-dichlorophenyl)-2-(sulfonylmethyl)benzoic acid by NMR method
Beta-lactamase TEM = Beta-lactamase TEM (Bacteria, UniProt P62593); experiment: Inhibition of recombinant N-terminal His-tagged bacterial Escherichia coli TEM-1 (24 to 286 residues) expressed in Escherichia coli BL21 (DE3) cells using FC5 as substrate preincubated up to 360 mins prior to substrate addition by fluorescence-based assay
[9] = tested on: Pseudomonas aeruginosa PAO1; experiment: Inhibition of recombinant Psedomonas aeruginosa PAO1 N-terminal His-tagged AmpC expressed in Escherichia coli BL21 (DE3) cells using FC5 as substrate preincubated up to 360 mins prior to substrate addition in presence or absence of Triton X-100 by fluorescence-based assay
[10] = Binding affinity to recombinant bacterial VIM-2 expressed in Escherichia coli BL21 (DE3) cells by NMR method; design: species or system Bacteria
Beta-lactamase OXA-10 = Beta-lactamase OXA-10 (Pseudomonas aeruginosa, UniProt P14489); experiment: Inhibition of recombinant Pseudomonas aeruginosa OXA-10 expressed in Escherichia coli BL21 (DE3) cells using FC5 as substrate preincubated up to 360 mins prior to substrate addition by fluorescence-based assay
Chain of Beta-lactamase OXA-10 (P14489 whole entry): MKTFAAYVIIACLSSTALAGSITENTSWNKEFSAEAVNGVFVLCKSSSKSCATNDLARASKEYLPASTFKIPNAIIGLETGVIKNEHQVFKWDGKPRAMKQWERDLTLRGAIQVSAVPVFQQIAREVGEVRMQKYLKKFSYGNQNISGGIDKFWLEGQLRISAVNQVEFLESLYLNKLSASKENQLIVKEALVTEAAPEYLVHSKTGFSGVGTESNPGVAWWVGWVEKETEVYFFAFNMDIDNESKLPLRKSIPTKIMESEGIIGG

Chain of Metallo-beta-lactamase type 2 (Klebsiella pneumoniae) (C7C422 whole entry): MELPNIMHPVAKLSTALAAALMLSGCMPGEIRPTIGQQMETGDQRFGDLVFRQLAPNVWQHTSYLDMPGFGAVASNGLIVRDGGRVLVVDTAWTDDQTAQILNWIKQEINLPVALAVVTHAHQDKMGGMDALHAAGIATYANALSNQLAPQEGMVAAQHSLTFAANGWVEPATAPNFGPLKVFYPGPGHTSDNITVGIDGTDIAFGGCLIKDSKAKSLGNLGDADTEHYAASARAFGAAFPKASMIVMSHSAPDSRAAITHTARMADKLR
Chain of Beta-lactamase TEM (P62593 whole entry, the tested form may be a part): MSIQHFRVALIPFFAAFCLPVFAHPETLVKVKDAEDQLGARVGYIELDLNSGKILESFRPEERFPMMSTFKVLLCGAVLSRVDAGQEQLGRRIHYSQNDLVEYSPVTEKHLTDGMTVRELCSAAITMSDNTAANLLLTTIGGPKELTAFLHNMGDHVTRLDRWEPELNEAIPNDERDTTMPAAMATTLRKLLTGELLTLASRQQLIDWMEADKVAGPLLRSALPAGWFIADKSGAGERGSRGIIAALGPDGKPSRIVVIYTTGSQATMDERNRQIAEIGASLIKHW

SMILES | IC50 [1] [nM] | IC50 [2] [nM] | MIC [3] [µg/mL] | MIC [4] [µg/mL] | IC50 [5] [nM] | also measured
O=C(O)c1ccc(-c2ccccc2)cc1CS | 230 | 5590 | 16 | 32 | 230 | Drug metabolism (Liver): Metabolite_Detected; solubility [6]: Soluble; IC50 (5' exonuclease Apollo): 149000 nM
O=C(O)c1ccc(-c2cccc(F)c2)cc1CS | 390 | 590 |  |  | 200 | IC50 [7]: 780 to 7800 nM; IC50 (5' exonuclease Apollo): 185000 nM; IC50 [8]: 780 to 7800 nM
O=C1SCc2cc(-c3ccccc3)ccc21 |  |  |  |  | > 100000 | 
O=C(O)c1ccc(-c2cc(C(F)(F)F)cc(C(F)(F)F)c2)cc1CS | 1720 | 44000 | > 128 | > 128 | 450 | Activity (Bacteria): inactive
O=C(O)Cc1ccccc1S |  |  |  |  | > 100000 | 
O=C(O)c1ccc(-c2ccc(F)cc2)cc1CS | 300 | 710 |  |  | 230 | IC50 (Beta-lactamase TEM): 32800 nM; IC50 [7]: 780 to 7800 nM; IC50 [8]: 780 to 7800 nM
CCOc1cccc(-c2ccc(C(=O)O)c(CS)c2)c1 | 320 | 7590 | 64 | 16 | 180 | 
O=C(O)c1ccc(-c2ccco2)cc1CS | 390 | 10200 | 32 | 64 | 360 | 
O=C(O)c1ccc(-c2cccc(Cl)c2Cl)cc1CS | 370 | 1160 |  |  | 40 | IC50 (Beta-lactamase TEM): 5500 nM; inhibition [9]: Active; Kd [10]: < 1000 nM; IC50 (Beta-lactamase OXA-10): 37300 nM
O=C(O)c1ccc(-c2ccccc2Cl)cc1CS | 300 | 2850 |  |  | 180 | inhibition [9]: Active; IC50 [7]: 780 to 7800 nM; IC50 [8]: 780 to 7800 nM

Continued, in another order:

IC50 [1] [nM] | IC50 [2] [nM] | MIC [3] [µg/mL] | MIC [4] [µg/mL] | IC50 [5] [nM] | SMILES | also measured
50 | 570 | 32 | 64 | 100 | CCc1ccc(-c2ccc(C(=O)O)c(CS)c2)cc1 | 
800 | > 100000 | 32 | 64 | 170 | O=C(O)c1ccc(Br)cc1CS | 
180 | 6780 | 16 | 8 | 170 | O=C(O)c1ccc(-c2ccsc2)cc1CS | 
220 | 2420 | 32 | 32 | 70 | O=C(O)c1ccc(-c2ccc3ccccc3c2)cc1CS | 
480 | 8820 |  |  | 150 | O=C(O)c1ccc(-c2ccccc2C(F)(F)F)cc1CS | 
60 | 420 |  |  | 100 | O=C(O)c1ccc(-c2ccc(Cl)cc2)cc1CS | IC50 [7]: 780 to 7800 nM; IC50 [8]: 780 to 7800 nM
140 | 310 |  |  | 70 | O=C(O)c1ccc(-c2cccc(Cl)c2)cc1CS | IC50 [7]: 780 to 7800 nM; IC50 (5' exonuclease Apollo): 268000 nM; IC50 [8]: 780 to 7800 nM
